Data taken from patent US20080261896A1, “Testosterone generating and metabolizing enhancer” (Sinphar Pharmaceutical Co., Ltd., priority 2007, published 2008).

Tested on: mouse Leydig tumor cell line R2C
Experiment: Test 1: testosterone generation of the mouse Leydig tumor cell line R2C (Testosterone EIA kit)
Type: cell-based
Conditions: R2C cells
Description: Test 1: Testing testosterone generation of the mouse Leydig tumor cell line R2C.
Materials: The extract of C. tubulosa prepared in the aforesaid first embodiment, and said echinacoside and acteoside used in the second and the third embodiments. The mouse Leydig tumor cell line R2C was obtained from the Japan Health Sciences Foundation (Osaka), and a Testosterone EIA testing kit was used to test testosterone levels.
Method: The R2C cells were subcultured in a cell medium called Ham's F10, which comprised 15% bovine serum, 2.5% fetal bovine serum, 100 units/mL penicillin G, and 100 μg/mL streptomycin. The cells were inoculated on a 24-hole plate at a density of 5×10^5 cells/mL, and 500 μL of the cell medium was added into each hole. After culturing for 24 hours, 50 μL of solutions resulted from dissolving samples from the first to the third embodiments in the same cell medium was added into each hole. After culturing for another 4 fours, the cells were collected along with the cell medium and subjected to centrifugation, so as to collect supernatant that included the cell medium. The Testosterone EIA testing kit (manufactured by Cayman Chemical Corporate) was used to determine testosterone concentrations in the each tested sample, and the results were shown in FIG. 1.

Compound	testosterone generation (testosterone level in the supernatant) versus control (10 μg/mL)	testosterone generation (testosterone level in the supernatant) versus control (100 μg/mL)	testosterone generation (testosterone level in the supernatant) versus control (30 μg/mL)
C[C@@H]1O[C@@H](O[C@@H]2[C@@H](O)[C@H](OCCc3ccc(O)c(O)c3)O[C@H](CO)[C@H]2OC(=O)/C=C/c2ccc(O)c(O)c2)[C@H](O)[C@H](O)[C@H]1O [acteoside]	increased	increased	–
C[C@@H]1O[C@@H](O[C@@H]2[C@@H](O)[C@H](OCCc3ccc(O)c(O)c3)O[C@H](CO[C@@H]3O[C@H](CO)[C@@H](O)[C@H](O)[C@H]3O)[C@H]2OC(=O)/C=C/c2ccc(O)c(O)c2)[C@H](O)[C@H](O)[C@H]1O [echinacoside]	increased	increased to twice as much as that of the control	increased
